Values of other authors as cited in patent US20050260283A1, “Composition for prevention and treatment of colon adenomas” (Medical Futures Inc., priority 2004, published 2005).

Experiments:
colorectal adenomas = conditions: calcium supplementation; volunteers with a history of colorectal adenomas (Baron, 1999)
colorectal cancer = conditions: regular aspirin use; epidemiological studies (Krishnan, 1997)

Structure (SMILES)	risk of recurrent colorectal adenomas (colorectal adenomas)	reduction in the incidence of colorectal cancer (colorectal cancer)
O=C([O-])[O-].[Ca+2] [calcium carbonate]	moderate but significant reduction	–
CC(=O)Oc1ccccc1C(=O)O [aspirin]	–	40-50%
